Here are results for seven molecules from patent US7214512B2, “Genomic mammary Amyloid a sequence” (The Board of Regents of the University of Nebraska, priority 1999, dated 2007).

Where “and” joins values, the source holds several entries; their conditions need not be identical. Equal values may be shown once.

One data set relates to MUC3 mRNA. Briefly: MUC3 mRNA expression in intestinal epithelial cell culture assay. The format is cell-based, human. The note with it: for MUC3 mRNA/28s RNA ratio, Mean: peptide comparison, Control = 100.000; for MUC3 mRNA/28s RNA ratio, Mean / MUC3 mRNA stimulation versus control (in words): 30 minutes at 37° C. at 50 μg/ml; for MUC3 mRNA stimulation versus control (in words): p<0.008. An excerpt:
Different mucin genes have been identified and to date, twelve human mucin genes have been identified. However, MUC3 mucin is the predominant intestinal mucin. It has previously been shown that the MUC3 mucins are effective in preventing the adherence of enteropathogenic Escherichia coli (EPEC) to intestinal epithelial cells. […] It is also well known that breast-feeding infants are far less susceptible to infectious diarrhea than formula fed infants. There are a number of theories why this is so, but it is hypothesized that milk-associated amyloid (colostrum SAA) may be an important inducer of MUC3 gene expression. Applicant has evaluated MUC3 mRNA expression using an in vitro human cell culture assay system. In this system, intestinal cells incubated with the N-terminal peptide sequence of colostrum SAA have shown increased MUC3 mRNA expression as compared to control cells grown without the addition of colostrum SAA to the cell culture medium. To further explore this finding, Applicant has evaluated the functional specificity of the N-terminal peptide sequence of colostrum SAA by evaluation of MUC3 expression in the same in vitro assay using colostrum SAA N-terminal peptide sequences that have been randomly scrambled and a colostrum SAA peptide sequence downstream of the N-terminal sequence. If the expression of MUC3 is increased then intestinal cells grown in the presence of colostrum SAA should have a greater capacity to inhibit adherence of bacterial pathogens. This will be studied using EPEC in an in vitro assay system pre-incubated with colostrum SAA in the cell culture medium. Enteropathogenic E. coli are non-invasive, non-toxin producing pathogens that have been recognized as a significant cause of diarrhea in third world countries and in day care settings in developed countries. Future studies will evaluate the benefits of colostrum SAA in in vivo studies as well as characterized animal equivalent to human EPEC. Colostrum associated SAA provides a means to naturally upregulate the innate protective mechanisms of the human intestine and would provide a novel form of therapy to a common problem that occurs all too often in the third world leads to death of infants and in the developed world countries and leads to significant morbidity and cost. Furthermore, prevention of intestinal infections for traveler's or those having to live in conditions with altered sanitary practices would also reduce morbidity. Thus, this therapy offers an effective, natural, non-drug/chemical therapy.
(§1) These four peptides were used in a cell culture assay designed to evaluate them for their properties of inducing mucin (MUC) mRNA production, either MUC3 or MUC2 according to the methods described by Mack et al. (Biochem. Biophys. Res. Commun. 199: 1012–1018, 1994 and Am J Physiol. Vol. 4, part 1, pg. G841–950, 1999).
N-Terminal Peptide Titration and MUC3 mRNA Expression. Intestinal epithelial cells, Mack et al. 1994, 1999, were exposed to the N-terminal 10 amino acid bovine colostrum-SAA peptide (SEQ ID NO:30) at various concentrations for 30 minutes incubation at […]. The cells were incubated an additional hour following replacement of the test medium with fresh medium without peptide and then the total cellular niRNA isolated and analyzed for MUC3 specific mRNA. […] The optimum concentration was 50 μg/ml medium (see FIG. 7).
MUC3 Stimulation. MUC3 stimulating activity of the N-terminal 10 amino acid bovine colostrum-SAA peptide was compared to the activity of the “Limited Scramble”, the “Total Scramble” and “C-Terminal peptides”. Optimum time and temperature of incubation and concentration of peptides was for 30 minutes at 37° C. at 50 μg/ml respectively.

In the next data set the test system is MUC2 mRNA. Kind of data set: MUC2 mRNA expression in intestinal epithelial cells cultured under conditions favoring MUC2. The note with it: for MUC2 mRNA/28s RNA ratio, Mean: peptide comparison, conditions optimized for MUC3 stimulation, Control = 100.000. The format is cell-based, human.
From the text: as §1
MUC2 mRNA Stimulation. To address whether the N-Terminal 10 amino acid bovine colostrum-SAA peptide would stimulate mRNA synthesis for MUC2 production, intestinal epithelial cells were cultured under conditions favoring MUC2 expression rather than MUC3. All peptides were used at concentrations and conditions that were previously optimized for MUC3 stimulation. […] Additionally, conditions were changed to 2× the optimum MUC3 incubation time (1 hr). […] The evidence strongly indicates specificity of function in stimulating the production of a mucin produced mainly in the small intestine (MUC3) over one produced primarily in the large intestine (MUC2) (see FIG. 9).

A short description of data set [1]: Isoelectric focusing (IEF) and 2-D gel of SAA preparations. The format is physicochemical. To be noted: IEF on IPG strips, anti-SAA monoclonal antibody stain. An excerpt:
Isoelectric Focusing (IEF) of SAA from serum, colostrum and cell culture fluid. The PROTEIN IEF Cell (BioRad) was used for the isoelectric focusing of the various SAA preparations. Ready Strip IPG Strips (BioRad Laboratories) with a pH range of 3–10 were used for the IEF. The second dimension (2-D) of the protein analysis was done by subjecting the IPG strips to 12% SDS-PAGE gel and electroblotting onto a PVDF membrane. The strips and blots were done in duplicate so that one of the blots could be stained with a protein stain, Coomassie Brilliant Blue, (CBB) and the other stained with the anti-SAA monoclonal antibody for the identification of the SAA protein isoforms. The samples also contained internal IEF standards (BioRad Laboratories) so that isoelectric point (pI) of each SAA isoforms could be determined. By comparing the antibody stained spots to the spots of the standards stained with CBB the apparent pI of the SAA isoforms could be determined. […]
The proteins subjected to the IEF and 2-D analysis were either affinity purified as described for the cell culture fluid or, in the case of the serum only semi-purified by hydrophobic chromatography. SAA is a highly hydrophobic molecule and will bind readily to Octyl Sepharose beads and then under the appropriate conditions can be eluted off the matrix. […]

For data set [2], the system named is Bovine MAC-T mammary gland epithelial cells. Briefly: Colostrum-SAA production by MAC-T cells stimulated with prolactin (ELISA). Type of data set: cell-based. How it is done:
Bovine MAC-T mammary gland epithelial cells were obtained from ATCC (CRL-10274) and cultured according to recommended conditions (Turner, J D and Huynh H. Immortalized bovine mammary epithelial cell line. U.S. Pat. No. 5,227,301 dated Jul. 13, 1993). MAC-T cells were cultured on Dulbecco's Modified Eagles Media (DMEM) supplemented with 10% Fetal Calf Serum (FCS), 5 μg/ml insulin, 1 μg/ml hydrocortisone and fungizone. Cells were incubated at 37° C. with 5% CO2. For colostrum-SAA production the cells were seeded onto type I Collagen coated plates. After 14 hours of incubation, the cells were washed twice with Dulbecco's phosphate buffered saline (DPBS) and incubated in media (DMEM, 5 μg/ml insulin, 1 μg/ml hydrocortisone and 2.5% FCS) supplemented with prolactin from sheep pituitary gland (5 μg/ml) for the stimulation of colostrum-SAA production. Approximately one half of the media was replaced daily with fresh prolactin supplemented media. Standard ELISA for the quantitation of SAA (FIG. 3) was used to assay aliquots of the growth media collected on the different days for the presence of colostrum-SAA.
Cells were kept in culture for 41 days in media supplemented with prolactin. Levels of colostrum-SAA production reached a maximum of almost 3000 ng/ml.
In general terms: In an ELISA, binding on a coated surface is turned into a signal by an enzyme label.

Turning to “DAAQRGPQQA (peptide of residues in C-terminal region of bovine SAA used as experimental control) [control 10 amino acid peptide, first 7 residues from the C-terminal region of bovine SAA, reference compound]”, the “MUC3 mRNA/28s RNA ratio, Mean” value in the data set with MUC3 mRNA was found to be 111.333. In the data set on MUC2 mRNA, the “MUC2 mRNA/28s RNA ratio, Mean” value was 67.500.

Turning to “GKFAWEGMTL (randomized experimental control sequence) [Total Scramble, control peptide with the amino acids of the entire N-Terminal peptide in random order, reference compound]”, the “MUC3 mRNA/28s RNA ratio, Mean” value in the data set on MUC3 mRNA is 109.333. Also, the “MUC2 mRNA/28s RNA ratio, Mean” value with MUC2 mRNA came out at 65.833.

For “MWGLTKFEAG (limited scramble for experiment) [N-terminal peptide in which the four TFLK amino acids were scrambled in their order, reference compound]”, in the data set with MUC3 mRNA, the “MUC3 mRNA stimulation versus control (in words)” value was “lack of stimulation” and the “MUC3 mRNA/28s RNA ratio, Mean” value turned out to be 95.000. Also, the “MUC2 mRNA/28s RNA ratio, Mean” value in the data set on MUC2 mRNA is given as 87.167.

“MWGTFLKEAG (N-terminal region of bovine colostrum SAA) [10 amino acid N-terminal portion of mature bovine colostrum-SAA containing the conserved TFLK]”: in the data set with MUC3 mRNA, the “time in which intestinal mucin genes are turned on” value is at most 30 min; the “MUC3 mRNA stimulation versus control (in words)” value was “stimulated MUC3 mRNA statistically significantly over the control values”; the “MUC3 mRNA/28s RNA ratio, Mean” value worked out at 174.833. Further, in the data set on MUC3 mRNA (30 minutes incubation), the “optimum concentration for MUC3 mRNA stimulation” value is 50 μg/ml medium. Moreover, the “MUC2 mRNA increase over control (in words)” value in the data set with MUC2 mRNA (100 and 500 μg/ml, incubation time 1 hr) is “None of these changes resulted in MUC2 mRNA increase over control values”. For the same molecule, in the data set on MUC2 mRNA (concentrations and conditions optimized for MUC3 stimulation), the “MUC2 mRNA stimulation versus control (in words)” value is reported as “the values were not significantly different”. In addition, in the data set on MUC2 mRNA, the “MUC2 mRNA/28s RNA ratio, Mean” value is on record as 101.167.

B1: SAA from the serum: SAA semi-purified from bovine serum, three isoforms staining with anti-SAA monoclonal antibody (protein)
chain: QWMSFFGEAYEGAKDMWRAYSDMREANYKGADKYFHARGNYDAAQRGPGGAWAAKVISDARENIQRFTDPLFKGTTSGQGQEDSRADQAANEWGRSGKDPNHFRPAGLPDKY
Take B1: in data set [1], the “apparent pI” value is ~7.0 and ~5.8 and ~5.5.

B2: prolactin: prolactin from sheep pituitary gland, used to stimulate colostrum-SAA production (protein, UniProt P01240 31-229, looked up)
Prolactin: TPVCPNGPGNCQVSLRDLFDRAVMVSHYIHNLSSEMFNEFDKRYAQGKGFITMALNSCHTSSLPTPEDKEQAQQTHHEVLMSLILGLLRSWNDPLYHLVTEVRGMKGVPDAILSRAIEIEEENKRLLEGMEMIFGQVIPGAKETEPYPVWSGLPSLQTKDEDARHSAFYNLLHCLRRDSSKIDTYLKLLNCRIIYNNNC
Consider B2, for which the “maximum level of colostrum-SAA production” value in data set [2] (prolactin 5 μg/ml in media, 41 days in culture) was about 3000 ng/mL. The “detection of colostrum-SAA in media (in words)” value in data set [2] (prolactin stimulation, eight days) is reported as “Measurable quantities of colostrum-SAA could be detected by day two”.

B3: colostrum-SAA: unique isoform of serum amyloid A found in bovine colostrum and MAC-T cell culture fluid (protein)
chain: QRWGTFLKEAGQGAKDMWRAYQDMKEANYRGADKYFHARGNYDAARRGPGGAWAAKVISNARETIQGITDPLFKGMTRDQVREDSKADQFANEWGRSGKDPNHFRPAGLPDKY
In the case of B3, the “apparent pI” value in data set [1] (listed as SAA purified from the culture fluid of MAC-T cells stimulated with LPS) is recorded as 9.4–9.6.
